Results as given in ChEMBL document CHEMBL4396919, “Permeability of Cyclic Peptide Macrocycles and Cyclotides and Their Potential as Therapeutics” (ACS Med Chem Lett, 2019).
*1 amine or outer side, *2 acyl side, *3 side chain or, on linkers, in order; H or OH if unused. Where a SMILES comes first, the peptide text is derived from it. [ ]: non-standard residue; d: D form. Ile(ψThz) = CC[C@H](C)[C@H](N[*:1])c1nc(C(=O)[*:2])cs1; NMeF = CN[C@@H](Cc1ccccc1)C(=O)O; Tle = CC(C)(C)[C@H](N)C(=O)O

Key:
[1] = in vivo; settings: Wistar, rat, po, 10 mg/kg
[2] = in vitro; settings: dog, MDCK
Description: Permeability in RRCK cells

bioavailability at 8 h [1] [%] | Papp [2] [×10⁻⁶ cm/s] | Compound
7 | 0.7 | CC[C@H](C)[C@@H]1NC(=O)[C@@H]2CCCN2C(=O)[C@H](Cc2ccccc2)NC(=O)[C@H](C)NC(=O)c2csc(n2)[C@H]([C@@H](C)CC)NC(=O)[C@@H]2CCCN2C1=O (cyclo(AFPIP[Ile(ψThz)]))
21 | – | CC[C@H](C)[C@@H]1NC(=O)[C@@H]2CCCN2C(=O)[C@H](Cc2ccccc2)N(C)C(=O)[C@H](C(C)(C)C)NC(=O)c2csc(n2)[C@H]([C@@H](C)CC)NC(=O)[C@@H]2CCCN2C1=O (cyclo(IP[Ile(ψThz)][Tle][NMeF]P))
